Experimental data taken from US10428044B2, “3-amino-1,5,6,7-tetrahydro-4H-indol-4-ones” (Bayer Pharma Aktiengesellschaft, priority 2014, dated 2019).

biological target: (recombinant) catalytic domain of human Bub1 (amino acids 704-1085) (Homo sapiens (Human), UniProt O43683); assay: Bub1 kinase assay (TR-FRET); assay type: biochemical; conditions: ATP 10 μM final, peptide substrate 1 μM final, 60 min at 22° C., read-out: Biological Assay: Bub1 kinase assay median IC50
Summary of the method: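 Readout was TR-FRET between a Eu-labeled antibody complex recognizing phosphoserine and streptavidin-XL665 on the biotinylated peptide, after EDTA stop and 1 h at 22° C. The kinase reaction ran for 60 min at 22° C. Values are means or medians of repeat tests, from 4-parameter fits normalized to enzyme-free and inhibitor-free controls.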

(recombinant) catalytic domain of human Bub1 (amino acids 704-1085), sequence (O43683 704-1085): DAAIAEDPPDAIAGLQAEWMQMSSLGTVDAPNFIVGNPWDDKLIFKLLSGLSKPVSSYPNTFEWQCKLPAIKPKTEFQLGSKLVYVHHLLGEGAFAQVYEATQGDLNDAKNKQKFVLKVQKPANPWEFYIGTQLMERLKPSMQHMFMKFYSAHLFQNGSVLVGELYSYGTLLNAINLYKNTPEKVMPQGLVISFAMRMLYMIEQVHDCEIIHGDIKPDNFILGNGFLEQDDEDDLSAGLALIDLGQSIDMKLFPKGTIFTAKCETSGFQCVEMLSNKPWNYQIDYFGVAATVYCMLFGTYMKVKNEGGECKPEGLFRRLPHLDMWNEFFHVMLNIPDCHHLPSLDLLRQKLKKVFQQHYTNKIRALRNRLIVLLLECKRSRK

| Structure (SMILES) | IC50 [nM] |
| --- | --- |
| CCCC(=O)Nc1cccc(Nc2c(-c3ccncc3)[nH]c3c2C(=O)CC(C)(C)C3)c1 [Example 102, N-(3-{[6,6-dimethyl-4-oxo-2-(pyridin-4-yl)-4,5,6,7-tetrahydro-1H-indol-3-yl]amino}phenyl)butanamide] | 954 |
| CCOc1cccc(Nc2c(-c3ccncc3)[nH]c3c2C(=O)CC(C)(C)C3)c1 [Example 104, 3-[(3-ethoxyphenyl)amino]-6,6-dimethyl-2-(pyridin-4-yl)-1,5,6,7-tetrahydro-4H-indol-4-one] | 524 |
| CC1(C)CC(=O)c2c([nH]c(-c3ccncc3)c2Nc2cccc(OCCO)c2)C1 [Example 106, 3-{[3-(2-hydroxyethoxy)phenyl]amino}-6,6-dimethyl-2-(pyridin-4-yl)-1,5,6,7-tetrahydro-4H-indol-4-one] | 5350 |
| CC1(C)CC(=O)c2c([nH]c(-c3ccncc3)c2Nc2cccc(OC(F)(F)F)c2)C1 [Example 107, 6,6-dimethyl-2-(pyridin-4-yl)-3-{[3-(trifluoromethoxy)phenyl]amino}-1,5,6,7-tetrahydro-4H-indol-4-one] | 164 |
| CCCOc1cccc(Nc2c(-c3ccncc3)[nH]c3c2C(=O)CC(C)(C)C3)c1 [Example 108, 6,6-dimethyl-3-[(3-propoxyphenyl)amino]-2-(pyridin-4-yl)-1,5,6,7-tetrahydro-4H-indol-4-one] | 104 |
| CC(=O)Nc1cccc(Nc2c(-c3ccncc3)[nH]c3c2C(=O)CC(C)(C)C3)c1 [Example 109, N-(3-{[6,6-dimethyl-4-oxo-2-(pyridin-4-yl)-4,5,6,7-tetrahydro-1H-indol-3-yl]amino}phenyl)acetamide] | 4560 |
| COc1cc(Nc2c(-c3ccncc3)[nH]c3c2C(=O)CC(C)(C)C3)ccc1F [Example 110, 3-[(4-fluoro-3-methoxyphenyl)amino]-6,6-dimethyl-2-(pyridin-4-yl)-1,5,6,7-tetrahydro-4H-indol-4-one] | 235 |
| CC1(C)CC(=O)c2c([nH]c(-c3ccncc3)c2Nc2ccc(F)c(CO)c2)C1 [Example 111, 3-{[4-fluoro-3-(hydroxymethyl)phenyl]amino}-6,6-dimethyl-2-(pyridin-4-yl)-1,5,6,7-tetrahydro-4H-indol-4-one] | 2630 |
| CC(O)c1cccc(Nc2c(-c3ccncc3)[nH]c3c2C(=O)CC(C)(C)C3)c1 (stereo not shown) [Example 112, 3-{[3-(1-hydroxyethyl)phenyl]amino}-6,6-dimethyl-2-(pyridin-4-yl)-1,5,6,7-tetrahydro-4H-indol-4-one] | 3480 |
| CC(=O)c1cccc(Nc2c(-c3ccncc3)[nH]c3c2C(=O)CC(C)(C)C3)c1 [Example 113, 3-[(3-acetylphenyl)amino]-6,6-dimethyl-2-(pyridin-4-yl)-1,5,6,7-tetrahydro-4H-indol-4-one] | 174 |
| CC1(C)CC(=O)c2c([nH]c(-c3ccncc3)c2Nc2cccc(C(C)(C)C)c2)C1 [Example 114, 3-[(3-tert-butylphenyl)amino]-6,6-dimethyl-2-(pyridin-4-yl)-1,5,6,7-tetrahydro-4H-indol-4-one] | 8640 |
| CC1(C)CC(=O)c2c([nH]c(-c3ccncc3)c2Nc2cccc(OC(F)F)c2)C1 [Example 117, 3-{[3-(difluoromethoxy)phenyl]amino}-6,6-dimethyl-2-(pyridin-4-yl)-1,5,6.7-tetrahydro-4H-indol-4-one] | 175 |
| CC1(C)CC(=O)c2c([nH]c(-c3ccncc3)c2Nc2cccc(C(=O)OC(C)(C)C)c2)C1 [Example 118, tert-butyl 3-{[6,6-dimethyl-4-oxo-2-(pyridin-4-yl)-4,5,6,7-tetrahydro-1H-indol-3-yl]amino}benzoate] | 457 |
| CC1(C)CC(=O)c2c([nH]c(-c3ccncc3)c2Nc2cccc(C3OCCO3)c2)C1 [Example 119, 3-{[3-(1,3-dioxolan-2-yl)phenyl]amino}-6,6-dimethyl-2-(pyridin-4-yl)-1,5,6,7-tetrahydro-4H-indol-4-one] | 2340 |
| COc1cc(F)ccc1Nc1c(-c2ccncc2)[nH]c2c1C(=O)CC(C)(C)C2 [Example 121, 3-[(4-fluoro-2-methoxyphenyl)amino]-6,6-dimethyl-2-(pyridin-4-yl)-1,5,6,7-tetrahydro-4H-indol-4-one] | 323 |
| CC1(C)CC(=O)c2c([nH]c(-c3ccnc(N)c3)c2Nc2ccccc2)C1 [Example 122, 2-(2-aminopyridin-4-yl)-6,6-dimethyl-3-(phenylamino)-1,5,6,7-tetrahydro-4H-indol-4-one] | 58 |
| COc1ccccc1Nc1c(-c2ccncc2)[nH]c2c1C(=O)CC(C)(C)C2 [Example 124, 3-[(2-methoxyphenyl)amino]-6,6-dimethyl-2-(pyridin-4-yl)-1,5,6,7-tetrahydro-4H-indol-4-one] | 154 |
| CCOc1cc(F)ccc1Nc1c(-c2ccncc2)[nH]c2c1C(=O)CC(C)(C)C2 [Example 125, 3-[(2-ethoxy-4-fluorophenyl)amino]-6,6-dimethyl-2-(pyridin-4-yl)-1,5,6,7-tetrahydro-4H-indol-4-one] | 454 |
| CC1(C)CC(=O)c2c([nH]c(-c3ccnc(N4CCCC4)c3)c2Nc2ccccc2)C1 [Example 126, 6,6-dimethyl-3-(phenylamino)-2-[2-(pyrrolidin-1-yl)pyridin-4-yl]-1,5,6,7-tetrahydro-4H-indol-4-one] | 14500 |

| Structure (SMILES) | IC50 [nM] |
| --- | --- |
| CC1(C)CC(=O)c2c([nH]c(-c3ccnc(N4CCOCC4)c3)c2Nc2ccccc2)C1 [Example 127, 6,6-dimethyl-2-[2-(morpholin-4-yl)pyridin-4-yl]-3-(phenylamino)-1,5,6,7-tetrahydro-4H-indol-4-one] | 7750 |
| CCOc1ccccc1Nc1c(-c2ccncc2)[nH]c2c1C(=O)CC(C)(C)C2 [Example 128, 3-[(2-ethoxyphenyl)amino]-6,6-dimethyl-2-(pyridin-4-yl)-1,5,6,7-tetrahydro-4H-indol-4-one] | 576 |
| CC1(C)CC(=O)c2c([nH]c(-c3ccncc3)c2Nc2ccc(F)c(C(F)(F)F)c2)C1 [Example 129, 3-{[4-fluoro-3-(trifluoromethyl)phenyl]amino}-6,6-dimethyl-2-(pyridin-4-yl)-1,5,6,7-tetrahydro-4H-indol-4-one] | 447 |
| CC1(C)CC(=O)c2c([nH]c(-c3ccncc3)c2Nc2ccc3ccsc3c2)C1 [Example 130, 3-(1-benzothiophen-6-ylamino)-6,6-dimethyl-2-(pyridin-4-yl)-1,5,6,7-tetrahydro-4H-indol-4-one] | 58.1 |
| Cc1cnccc1-c1[nH]c2c(c1Nc1ccccc1)C(=O)CC(C)(C)C2 [Example 131, 6,6-dimethyl-2-(3-methylpyridin-4-yl)-3-(phenylamino)-1,5,6,7-tetrahydro-4H-indol-4-one] | 51.8 |
| CC(C)C(=O)Nc1cc(-c2[nH]c3c(c2Nc2ccccc2)C(=O)CC(C)(C)C3)ccn1 [Example 132, N-{4-[6,6-dimethyl-4-oxo-3-(phenylamino)-4,5,6,7-tetrahydro-1H-indol-2-yl]pyridin-2-yl}-2-methylpropanamide] | 50.2 |
| CC(=O)N(C(C)=O)c1cc(-c2[nH]c3c(c2Nc2ccccc2)C(=O)CC(C)(C)C3)ccn1 [Example 133, N-acetyl-N-{4-[6,6-dimethyl-4-oxo-3-(phenylamino)-4,5,6,7-tetrahydro-1H-indol-2 yl]pyridin-2-yl}acetamide] | 49.2 |
| O=C1CCCc2[nH]c(-c3ccncc3)c(Nc3ccc(F)c(F)c3)c21 [Example 134, 3-[(3,4-difluorophenyl)amino]-2-(pyridin-4-yl)-1,5,6,7-tetrahydro-4H-indol-4-one] | 49.7 |
| CC1(C)CC(=O)c2c([nH]c(-c3c(F)cncc3F)c2Nc2ccccc2)C1 [Example 135, 2-(3,5-difluoropyridin-4-yl)-6,6-dimethyl-3-(phenylamino)-1,5,6,7-tetrahydro-4H-indol-4-one] | 188 |
| O=C1CCCc2[nH]c(-c3c(F)cncc3F)c(Nc3cccc(F)c3)c21 [Example 136, 2-(3,5-difluoropyridin-4-yl)-3-[(3-fluorophenyl)amino]-1,5,6,7-tetrahydro-4H-indol-4-one] | 924 |
| Nc1cc(-c2[nH]c3c(c2Nc2cccc(F)c2)C(=O)CCC3)ccn1 [Example 138, 2-(2-aminopyridin-4-yl)-3-[(3-fluorophenyl)amino]-1,5,6,7-tetrahydro-4H-indol-4-one] | 92.4 |
| Nc1cc(-c2[nH]c3c(c2Nc2ccccc2)C(=O)CCC3)ccn1 [Example 139, 2-(2-aminopyridin-4-yl)-3-(phenylamino)-1,5,6,7-tetrahydro-4H-indol-4-one] | 113 |
| O=C1CCCc2[nH]c(-c3ccncc3Cl)c(Nc3ccc(F)cc3)c21 [Example 142, 2-(3-chloropyridin-4-yl)-3-[(4-fluorophenyl)amino]-1,5,6,7-tetrahydro-4H-indol-4-one] | 68.5 |
| Cc1cc(-c2[nH]c3c(c2Nc2ccccc2)C(=O)CCC3)ccn1 [Example 143, 2-(2-methylpyridin-4-yl)-3-(phenylamino)-1,5,6,7-tetrahydro-4H-indol-4-one] | 558 |
| CCNC(=O)c1cccc(Nc2c(-c3ccncc3)[nH]c3c2C(=O)CC(C)(C)C3)c1 [Example 144, 3-{[6,6-dimethyl-4-oxo-2-(pyridin-4-yl)-4,5,6,7-tetrahydro-1H-indol-3-yl]amino}-N-ethylbenzamide] | 1720 |
| CNc1cc(-c2[nH]c3c(c2Nc2ccccc2)C(=O)CC(C)(C)C3)ccn1 [Example 145, 6,6-dimethyl-2-[2-(methylamino)pyridin-4-yl]-3-(phenylamino)-1,5,6,7-tetrahydro-4H-indol-4-one] | 148 |
| CC1(C)CC(=O)c2c([nH]c(-c3ccncc3)c2Nc2ccccc2C#N)C1 [Example 146, 2-{[6,6-dimethyl-4-oxo-2-(pyridin-4-yl)-4,5,6,7-tetrahydro-1H-indol-3-yl]amino}benzonitrile] | 48.2 |
| CC1(C)CC(=O)c2c([nH]c(-c3ccncc3)c2Nc2ccc(F)c(C#N)c2)C1 [Example 147, 5-{[6,6-dimethyl-4-oxo-2-(pyridin-4-yl)-4,5,6,7-tetrahydro-1H-indol-3-yl]amino}-2-fluorobenzonitrile] | 258 |
